Laboratory results taken from ChEMBL document CHEMBL5356985, “Development of trisubstituted thiophene-3-arboxamide selenide derivatives as novel EGFR kinase inhibitors with cytotoxic activity” (RSC Med Chem, 2023).
Active and inactive are the calls of the source. No cut-off for these calls is given here.

Experiments:
HCT-116 [1] = test: Induction of apoptosis in human HCT-116 cells assessed as early apoptotic cells at 3.2 uM incubated for 48 hrs by annexin V-FITC and propidium iodide staining based flow cytometry (Rvb=4.44%); type: functional
HCT-116 [2] = test: Induction of apoptosis in human HCT-116 cells assessed as cell shrinkage at 1.6 to 6.4 uM incubated for 48 hrs by phase-contrast microscopy; type: functional, cell-based; details: dose 1.6-6.4 µM
HCT-116 [3] = test: Induction of apoptosis in human HCT-116 cells assessed as pyknotic/fragmented bright nucleus at 1.6 to 6.4 uM incubated for 48 hrs by DAPI staining based fluorescence microscopy; type: functional, cell-based; details: dose 1.6-6.4 µM
HCT-116 [4] = test: Induction of apoptosis in human HCT-116 cells assessed as late apoptotic cells at 6.4 uM incubated for 48 hrs by annexin V-FITC and propidium iodide staining based flow cytometry (Rvb=13.51%); type: functional
HCT-116 [5] = test: Induction of apoptosis in human HCT-116 cells assessed as necrotic cells at 1.6 uM incubated for 48 hrs by annexin V-FITC and propidium iodide staining based flow cytometry (Rvb=13.42%); type: functional
HCT-116 [6] = test: Anti-metastatic activity against human HCT-116 cells assessed as inhibition of cell migration by measuring wound width at 3.2 uM and measured at 0 hrs by scratch wound healing assay (Rvb=287.904 micrometer); type: functional
HCT-116 [7] = test: Anti-metastatic activity against human HCT-116 cells assessed as inhibition of cell migration by measuring wound width at 1.6 uM and measured at 0 hrs by scratch wound healing assay (Rvb=287.904 micrometer); type: functional
HCT-116 [8] = test: Induction of apoptosis in human HCT-116 cells assessed as late apoptotic cells at 1.6 uM incubated for 48 hrs by annexin V-FITC and propidium iodide staining based flow cytometry (Rvb=13.51%); type: functional
HCT-116 [9] = test: Antiproliferative activity against human HCT-116 cells assessed as cell growth inhibition incubated for 48 hrs by MTT assay; type: functional, cell-based; details: HCT-116, 48 h
HCT-116 [10] = test: Anti-metastatic activity against human HCT-116 cells assessed as inhibition of cell migration by measuring wound width at 3.2 uM and measured at 48 hrs by scratch wound healing assay (Rvb=179.681 micrometer); type: functional
MCF7 [11] = test: Antiproliferative activity against human MCF7 cells assessed as cell growth inhibition at 20 uM incubated for 48 hrs by MTT assay; type: functional
HCT-116 [12] = test: Induction of apoptosis in human HCT-116 cells assessed as horse shoe-shaped nuclear morphological change at 1.6 to 6.4 uM incubated for 48 hrs by DAPI staining based fluorescence microscopy; type: functional, cell-based; details: dose 1.6-6.4 µM
HCT-116 [13] = test: Induction of mitochondrial transmembrane potential loss in human HCT-116 cells assessed as reduction in red/green fluorescence ratio at 6.4 uM incubated for 48 hrs by JC-1 staining based fluorescence microscopic analysis; type: functional, cell-based
HCT-116 [14] = test: Induction of apoptosis in human HCT-116 cells assessed as necrotic cells at 3.2 uM incubated for 48 hrs by annexin V-FITC and propidium iodide staining based flow cytometry (Rvb=13.42%); type: functional
HCT-116 [15] = test: Induction of apoptosis in human HCT-116 cells assessed as live cells at 6.4 uM incubated for 48 hrs by annexin V-FITC and propidium iodide staining based flow cytometry (Rvb=68.64%); type: functional
A549 [16] = test: Antiproliferative activity against human A549 cells assessed as cell growth inhibition incubated for 48 hrs by MTT assay; type: functional, cell-based; details: A549, 48 h
HCT-116 [17] = test: Induction of apoptosis in human HCT-116 cells assessed as increase in late apoptotic cells by measuring ratio of orange-red fluorescence at 1.6 to 6.4 uM incubated for 48 hrs by Acridine orange/ethidium bromide staining based fluorescence microscopy; type: functional, cell-based; details: dose 1.6-6.4 µM
[18] = Cytotoxicity against human HaCaT cells assessed as cell growth inhibition incubated for 48 hrs by MTT assay; type: toxicity, cell-based
HCT-116 [19] = test: Induction of apoptosis in human HCT-116 cells assessed as live cells at 1.6 uM incubated for 48 hrs by annexin V-FITC and propidium iodide staining based flow cytometry (Rvb=68.64%); type: functional
HCT-116 [20] = test: Induction of apoptosis in human HCT-116 cells assessed as early apoptotic cells at 6.4 uM incubated for 48 hrs by annexin V-FITC and propidium iodide staining based flow cytometry (Rvb=4.44%); type: functional
SK-MEL-28 [21] = test: Antiproliferative activity against human SK-MEL-28 cells assessed as cell growth inhibition incubated for 48 hrs by MTT assay; type: functional, cell-based; details: SK-MEL-28, 48 h
HCT-116 [22] = test: Induction of mitochondrial transmembrane potential loss in human HCT-116 cells assessed as reduction in red/green fluorescence ratio at 1.6 to 3.2 uM incubated for 48 hrs by JC-1 staining based fluorescence microscopic analysis; type: functional, cell-based; details: dose 1.6-3.2 µM
HCT-116 [23] = test: Anti-metastatic activity against human HCT-116 cells assessed as inhibition of cell migration by measuring wound width at 1.6 uM and measured at 48 hrs by scratch wound healing assay (Rvb=179.681 micrometer); type: functional
HCT-116 [24] = test: Induction of apoptosis in human HCT-116 cells assessed as cell shape alteration at 1.6 to 6.4 uM incubated for 48 hrs by phase-contrast microscopy; type: functional, cell-based; details: dose 1.6-6.4 µM
A549 [25] = test: Antiproliferative activity against human A549 cells assessed as cell growth inhibition at 20 uM incubated for 48 hrs by MTT assay; type: functional
HCT-116 [26] = test: Induction of apoptosis in human HCT-116 cells assessed as late apoptotic cells at 3.2 uM incubated for 48 hrs by annexin V-FITC and propidium iodide staining based flow cytometry (Rvb=13.51%); type: functional
HCT-116 [27] = test: Induction of apoptosis in human HCT-116 cells assessed as necrotic cells at 6.4 uM incubated for 48 hrs by annexin V-FITC and propidium iodide staining based flow cytometry (Rvb=13.42%); type: functional
HCT-116 [28] = test: Induction of apoptosis in human HCT-116 cells assessed as chromatin condensation at 1.6 to 6.4 uM incubated for 48 hrs by DAPI staining based fluorescence microscopy; type: functional, cell-based; details: dose 1.6-6.4 µM
HCT-116 [29] = test: Induction of apoptosis in human HCT-116 cells assessed as early apoptotic cells at 1.6 uM incubated for 48 hrs by annexin V-FITC and propidium iodide staining based flow cytometry (Rvb=4.44%); type: functional
HCT-116 [30] = test: Induction of intracellular ROS generation in human HCT-116 cells at 1.6 to 3.2 uM incubated for 48 hrs by DCFDA staining based fluorescence analysis; type: functional, cell-based; details: dose 1.6-3.2 µM
[31] = target: Epidermal growth factor receptor (Homo sapiens, UniProt P00533); test: Inhibition of EGFR (unknown origin) using poly E4Y1 and ATP as substrate incubated for 60 mins by ADP-Glo kinase assay
Epidermal growth factor receptor, sequence (P00533 whole entry): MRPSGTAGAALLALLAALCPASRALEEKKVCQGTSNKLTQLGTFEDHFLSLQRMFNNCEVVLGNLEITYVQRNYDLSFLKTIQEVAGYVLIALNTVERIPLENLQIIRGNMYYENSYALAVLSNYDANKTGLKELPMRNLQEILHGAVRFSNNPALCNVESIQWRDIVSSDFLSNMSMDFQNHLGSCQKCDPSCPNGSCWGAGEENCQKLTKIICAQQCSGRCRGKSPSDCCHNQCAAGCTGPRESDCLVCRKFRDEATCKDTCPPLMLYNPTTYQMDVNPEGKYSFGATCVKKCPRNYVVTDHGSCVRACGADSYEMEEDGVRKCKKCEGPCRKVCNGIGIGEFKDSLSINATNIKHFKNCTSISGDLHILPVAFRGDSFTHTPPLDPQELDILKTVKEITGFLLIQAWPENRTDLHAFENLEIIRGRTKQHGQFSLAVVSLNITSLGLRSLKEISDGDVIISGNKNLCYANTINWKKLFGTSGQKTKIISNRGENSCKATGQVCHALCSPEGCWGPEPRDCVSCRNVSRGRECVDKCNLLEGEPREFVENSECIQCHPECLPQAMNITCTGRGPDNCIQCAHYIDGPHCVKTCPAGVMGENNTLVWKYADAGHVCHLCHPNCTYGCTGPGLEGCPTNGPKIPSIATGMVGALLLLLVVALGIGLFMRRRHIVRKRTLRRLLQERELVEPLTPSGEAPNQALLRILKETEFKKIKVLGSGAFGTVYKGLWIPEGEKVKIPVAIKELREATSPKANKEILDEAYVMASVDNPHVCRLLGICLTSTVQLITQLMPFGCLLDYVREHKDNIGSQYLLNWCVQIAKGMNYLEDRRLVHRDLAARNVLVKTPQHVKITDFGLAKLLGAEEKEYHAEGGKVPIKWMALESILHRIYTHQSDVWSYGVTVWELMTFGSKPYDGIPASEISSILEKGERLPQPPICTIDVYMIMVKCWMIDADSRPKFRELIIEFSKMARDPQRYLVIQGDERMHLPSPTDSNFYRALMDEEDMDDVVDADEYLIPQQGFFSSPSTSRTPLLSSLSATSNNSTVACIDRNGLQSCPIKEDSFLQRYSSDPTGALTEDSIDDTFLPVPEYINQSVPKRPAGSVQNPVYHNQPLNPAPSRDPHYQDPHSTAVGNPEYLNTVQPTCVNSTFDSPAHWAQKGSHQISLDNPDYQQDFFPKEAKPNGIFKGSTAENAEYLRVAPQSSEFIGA

HCT-116 [32] = test: Induction of apoptosis in human HCT-116 cells assessed as increase in necrotic cells by measuring ratio of orange-red fluorescence at 1.6 to 6.4 uM incubated for 48 hrs by Acridine orange/ethidium bromide staining based fluorescence microscopy; type: functional, cell-based; details: dose 1.6-6.4 µM
MCF7 [33] = test: Antiproliferative activity against human MCF7 cells assessed as cell growth inhibition incubated for 48 hrs by MTT assay; type: functional, cell-based; details: MCF7, 48 h
HCT-116 [34] = test: Induction of intracellular ROS generation in human HCT-116 cells at 6.4 uM incubated for 48 hrs by DCFDA staining based fluorescence analysis; type: functional, cell-based
HCT-116 [35] = test: Antiproliferative activity against human HCT-116 cells assessed as cell growth inhibition at 20 uM incubated for 48 hrs by MTT assay; type: functional
HCT-116 [36] = test: Induction of apoptosis in human HCT-116 cells assessed as live cells at 3.2 uM incubated for 48 hrs by annexin V-FITC and propidium iodide staining based flow cytometry (Rvb=68.64%); type: functional
HCT-116 [37] = test: Induction of apoptosis in human HCT-116 cells assessed as reduction in number of viable cells at 1.6 to 6.4 uM incubated for 48 hrs by phase-contrast microscopy; type: functional, cell-based; details: dose 1.6-6.4 µM
HCT-116 [38] = test: Anti-metastatic activity against human HCT-116 cells assessed as inhibition of cell migration at 1.6 to 6.4 uM and measured at 48 hrs by scratch wound healing assay; type: functional, cell-based; details: dose 1.6-6.4 µM
SK-MEL-28 [39] = test: Antiproliferative activity against human SK-MEL-28 cells assessed as cell growth inhibition at 20 uM incubated for 48 hrs by MTT assay; type: functional
HCT-116 [40] = test: Anti-metastatic activity against human HCT-116 cells assessed as inhibition of cell migration by measuring wound width at 6.4 uM and measured at 48 hrs by scratch wound healing assay (Rvb=179.681 micrometer); type: functional
HCT-116 [41] = test: Anti-metastatic activity against human HCT-116 cells assessed as inhibition of cell migration by measuring wound width at 6.4 uM and measured at 0 hrs by scratch wound healing assay (Rvb=287.904 micrometer); type: functional

Structure (SMILES): Cc1sc([Se]c2sc(C)c(-c3cccc(Br)c3)c2C(=O)NC(CO)C(=O)N2CCCC2)c(C(=O)NC(CO)C(=O)N2CCCC2)c1-c1cccc(Br)c1 (stereo unspecified)
- Activity (HCT-116 [1]): 11.75%
- Activity (HCT-116 [2]): Dose-Dependent Effect
- Activity (HCT-116 [3]): Active
- Activity (HCT-116 [4]): 88.93%
- Activity (HCT-116 [5]): 10.1%
- Activity (HCT-116 [6]): 296.312 um
- Activity (HCT-116 [7]): 257.433 um
- Activity (HCT-116 [8]): 27.98%
- IC50 (HCT-116 [9]): 3.2 µM
- Activity (HCT-116 [10]): 276.354 um
- inhibition at 20 µM (MCF7 [11]): 90%
- Activity (HCT-116 [12]): Active
- Activity (HCT-116 [13]): Active
- Activity (HCT-116 [14]): 12.61%
- Activity (HCT-116 [15]): 2.56%
- IC50 (A549 [16]): 7.86 µM
- Activity (HCT-116 [17]): Dose-Dependent Effect
- IC50 at 48 h [18]: 24 µM
- Activity (HCT-116 [19]): 52.95%
- Activity (HCT-116 [20]): 3.04%
- IC50 (SK-MEL-28 [21]): 8.81 µM
- Activity (HCT-116 [22]): Dose-Dependent Effect
- Activity (HCT-116 [23]): 235.37 um
- Activity (HCT-116 [24]): Dose-Dependent Effect
- inhibition at 20 µM (A549 [25]): 90%
- Activity (HCT-116 [26]): 43.71%
- Activity (HCT-116 [27]): 5.47%
- Activity (HCT-116 [28]): Active
- Activity (HCT-116 [29]): 8.97%
- Activity (HCT-116 [30]): Dose-Dependent Effect
- IC50 [31]: 0.0944 µM
- Activity (HCT-116 [32]): Dose-Dependent Effect
- IC50 (MCF7 [33]): 8.06 µM
- Activity (HCT-116 [34]): Active
- inhibition at 20 µM (HCT-116 [35]): 75%
- Activity (HCT-116 [36]): 32.12%
- Activity (HCT-116 [37]): Dose-Dependent Effect
- Activity (HCT-116 [38]): Dose-Dependent Effect
- inhibition at 20 µM (SK-MEL-28 [39]): 78%
- Activity (HCT-116 [40]): 267.94 um
- Activity (HCT-116 [41]): 275.298 um
